Assay results as given in the OligoGym collection.
Where “and” joins values, the source holds several entries; their conditions need not be identical. Identical values can stand only once. After the bases stand the sugars from the 5' end (letter, count) and the backbone: PS all phosphorothioate, else s phosphorothioate and o phosphodiester by linkage. Methylation of C is not given here. e = 2'-O-(2-methoxyethyl) (MOE); k = constrained ethyl (cEt); d = 2'-deoxy (DNA)

Target: IRF4
Conditions: ASO

Sequence	target mRNA inhibition (SK-MEL-28, 4 µM)	target mRNA inhibition (MM.1R, 1 µM)	also measured
TGACATAAAGGACCCC (sugars k3 d10 k3, PS)	48%	–	–
CTCTAGTCAGTGTCAA (sugars k3 d10 k3, PS)	59%	–	–
AAACGAGAACGCACGG (sugars k3 d10 k3, PS)	–	9%	–
ATCCACACCAATGGCA (sugars k3 d10 k3, PS)	34%	–	–
CGCCATGGCTGATCGC (sugars k3 d10 k3, PS)	53%	–	–
CGCCCAATCACCTTCC (sugars k3 d10 k3, PS)	–	-19%	–
AAACACCCCTTCTTGT (sugars k3 d10 k3, PS)	-13%	–	–
CTGGAGAGAACTCATG (sugars k3 d10 k3, PS)	38%	–	–
TAGAATGAGAGGTGTC (sugars k3 d10 k3, PS)	29%	–	–
GCGCGGAGGGCAGGCG (sugars k3 d10 k3, PS)	–	-32%	–
GATGAGGGACCAGAAC (sugars k3 d10 k3, PS)	20%	–	–
GCGCAAGTCTACAGCC (sugars k3 d10 k3, PS)	-20%	–	–
CCTTATTAGACTGACA (sugars k3 d10 k3, PS)	48%	–	–
TGTAGTATGAGAAACG (sugars k2 d9 e3 k2, PS)	–	7%	–
GGTCTGGAAACTCCTC (sugars k3 d10 k3, PS)	52%	–	target mRNA inhibition (MM.1R, 0.074 µM): 13%; target mRNA inhibition (MM.1R, 0.222 µM): 14%; target mRNA inhibition (MM.1R, 0.666 µM): 12%; target mRNA inhibition (MM.1R, 2 µM): 17%; target mRNA inhibition (SK-MEL-28, 0.185 µM): 1%; target mRNA inhibition (SK-MEL-28, 5 µM): 63%; target mRNA inhibition (SK-MEL-28, 15 µM): 86%
CACAAAGCGGGTTCAC (sugars k3 d10 k3, PS)	–	-12%	–
GGAAGTTTACACTGGA (sugars k3 d9 k3 e1, PS)	–	78%	target mRNA inhibition (MM.1R, 0.074 µM): 20%; target mRNA inhibition (MM.1R, 0.222 µM): 45%; target mRNA inhibition (MM.1R, 0.666 µM): 77%; target mRNA inhibition (MM.1R, 2 µM): 91%
TGTAACAGGCTATCAG (sugars k3 d10 k3, PS)	31%	–	–
TTTGAAGCAACACGGG (sugars k3 d10 k3, PS)	47%	–	–
GAATAAACACCCCTTC (sugars k3 d10 k3, PS)	44%	–	–
ACATATTCAATGCACC (sugars k3 d10 k3, PS)	47%	–	–
TTCACACTGCCGTGAT (sugars k3 d10 k3, PS)	–	-12%	–
CAGGAGCGCGGAGGGC (sugars k3 d10 k3, PS)	11%	–	–
CTTCCAAGACAGCTTC (sugars k3 d10 k3, PS)	63%	–	–

Sequence	target mRNA inhibition (SK-MEL-28, 4 µM)	target mRNA inhibition (MM.1R, 1 µM)	also measured
GACTCAAGAAAATAGG (sugars k3 d10 k3, PS)	64%	–	–
AACTTTCACCTGTGGG (sugars k3 d10 k3, PS)	50%	–	–
GGTTGGCTGGTCTTTG (sugars kkdddddddddkekek, PS)	–	67% and 63%	target mRNA inhibition (MM.1R, 0.0625 µM): 34%; target mRNA inhibition (MM.1R, 0.25 µM): 44%; target mRNA inhibition (MM.1R, 4 µM): 82%
TGCCTTGTGACATAAA (sugars k3 d10 k3, PS)	45%	–	–
AAACGCAGAGCCAGTA (sugars k3 d10 k3, PS)	37%	–	–
CGTCTTCCAGGTGGGA (sugars k3 d10 k3, PS)	16%	–	–
TCACCTGAAGGATTTG (sugars k3 d10 k3, PS)	25%	–	–
TAGCCAATTCCTCCAC (sugars k3 d10 k3, PS)	–	1%	–
AGTGATGTCAGGTTTT (sugars kkkdddddddddkeke, PS)	–	59%	target mRNA inhibition (MM.1R, 0.074 µM): 15%; target mRNA inhibition (MM.1R, 0.222 µM): 36%; target mRNA inhibition (MM.1R, 0.666 µM): 55%; target mRNA inhibition (MM.1R, 2 µM): 79%
TAAACAGTGCCCAAGC (sugars k3 d10 k3, PS)	41%	–	–
CTGACTTTAATATTAG (sugars k3 d10 k3, PS)	56%	–	–
GTTAAGTCCCATCTGT (sugars k3 d10 k3, PS)	40%	–	–
AGCCTAGAGGTGCCTT (sugars k3 d10 k3, PS)	41%	–	–
CTTAATTCTGGGTTAA (sugars k3 d10 k3, PS)	53%	–	–
AAATCACTTGTCTTGG (sugars k3 d10 k3, PS)	49%	–	–
AGGCACCTTCGCGGCC (sugars k3 d10 k3, PS)	18%	–	–
CCAAGCCTAGAGGTGC (sugars k3 d10 k3, PS)	–	21%	–
GCCAATCAGATGTCAC (sugars k3 d10 k3, PS)	46%	–	–
AAGCTTGATAAAGGCT (sugars k2 d9 e3 k2, PS)	–	53%	–
CAAAATGGTGTGTAAG (sugars k3 d10 k3, PS)	25%	–	–
CATCAGAAATCACGAG (sugars k3 d10 k3, PS)	55%	–	–
CGTAAACTGAAAGACC (sugars k3 d10 k3, PS)	48%	–	–
AACTAATGTCCCCAGG (sugars k3 d10 k3, PS)	–	-12%	–
CAAGACAAGGGTTTGA (sugars k3 d10 k3, PS)	–	-3%	–

Sequence	target mRNA inhibition (SK-MEL-28, 4 µM)	target mRNA inhibition (MM.1R, 1 µM)	also measured
ACACTTTTAGAGAGGA (sugars kkdddddddddekeke, PS)	–	41%	–
CTTCAACAGCACTGTC (sugars k3 d10 k3, PS)	56%	–	–
GTGTGCTTGCCAAGCC (sugars kdddddddddkekeke, PS)	–	6% and 22%	–
TGGCCACAGAGGACTT (sugars k3 d10 k3, PS)	33%	–	–
TCAAACACTAATACCT (sugars k3 d10 k3, PS)	25%	–	–
TCAGTTTGTGAAGCAT (sugars k3 d9 k3 e1, PS)	–	58%	target mRNA inhibition (MM.1R, 0.074 µM): 28%; target mRNA inhibition (MM.1R, 0.222 µM): 22%; target mRNA inhibition (MM.1R, 0.666 µM): 43%; target mRNA inhibition (MM.1R, 2 µM): 64%
GGAACGAAGAGCAGGG (sugars k3 d10 k3, PS)	–	12%	–
TGCCCAATACATATCC (sugars k3 d10 k3, PS)	59%	–	–
CGACAGCATAGCATTA (sugars k3 d10 k3, PS)	75%	–	–
CCCATTTAATCTGTCT (sugars k3 d10 k3, PS)	33%	–	–
GGAAATACGACAACTT (sugars k3 d10 k3, PS)	63%	–	–
CAACACGGGAATTTCC (sugars k3 d10 k3, PS)	55%	–	–
AGCCTTCACGCACCAT (sugars k3 d10 k3, PS)	30%	–	–
CAAGTGTCTAAAGTCC (sugars k2 d9 e3 k2, PS)	–	22% and 31%	–
TCGAGATCAGTCTCAA (sugars k3 d10 k3, PS)	58% and 82%	–	–
TGATGTGATAGCTGAG (sugars kdddddddddkekeke, PS)	–	47%	–
AAGTCATTGCTCTTGT (sugars k4 d8 k4, PS)	28%	–	–
AATACCTACCTGCCCT (sugars k3 d10 k3, PS)	15%	–	–
CCAATTTATGCCATGG (sugars k3 d10 k3, PS)	12%	–	–
CAGTGACTTGCATCCA (sugars k3 d10 k3, PS)	–	53% and 38%	target mRNA inhibition (MM.1R, 0.0625 µM): 40% and 20%; target mRNA inhibition (MM.1R, 0.25 µM): 43% and 24%; target mRNA inhibition (MM.1R, 4 µM): 75% and 61%
CTATAGTGTTCCAGGA (sugars k3 d10 k3, PS)	66%	–	–
TGATAAAGGCTGAACT (sugars k3 d10 k3, PS)	41%	–	–
ACCTCAGTTTGTGAAG (sugars kddddddddddkekek, PS)	–	18%	–
AATGTGTATTACTCTT (sugars k3 d10 k3, PS)	–	53% and 41%	–
